Like-named read-outs stand apart in the source and are kept apart here.
Assay: MicroPET distribution of [^18F]-GA after PG polysaccharides intervention
Assay type: in vivo, mice
Conditions: for tissue uptake at 1 h: po, read-out: %ID/g of [^18F]-GA in the lungs, OA
Experimental: The mice were grouped by weight and housed in cages of the climate control room (25°C), with a photoperiod 12:12-h. During feeding, mice were free to access food and water. Mice were fasted for 24 h before the experiment. The mice were anesthetized with 4% isoflurane while preparing for scanning ([Constantinescu et al., 2013b]; [Cui et al., 2017]). Eighteen healthy male Kunming mice, weighing 20 ± 2 g, were divided into three groups, which were control group, once-administered (OA) group and long-term administration (LA) group. In the OA group, 1 h before the administration of [^18F]-GA, the mice were orally treated with PG polysaccharides. In the LA group, the mice were orally given the PG polysaccharides for 7 days, but not before the administration of [^18F]-GA.
Rice received a tail vein injection (8.67 ± 2.14 MBq/μg) of [^18F]-GA and placed in the scanner bed and mouse-imaging room immediately ([Constantinescu et al., 2013b]; [O’Doherty et al., 2017]). Firstly, 2 h PET scanning was performed using an Inveon-dedicated PET scanner. The average delay between injection and starting of PET scanning was 3.5 min. Rice were maintained stable under 4% isoflurane anesthesia throughout scanning. The PET list-mode data were dynamically classified into 23 3D sinograms of span and three ring difference. After Fourier recombination, the data were reconstructed using a 2D ordered-subset expectation maximization algorithm. Random events were excluded before reconstruction. The response of detector is normalized using a component-based approach. All dynamic images were corrected for radioactive decay automatically. The PET images were reconstructed by a cone beam algorithm into 480 × 480 × 632 image arrays. After the reconstruction, images were spatially transformed to match the PET images ([Constantinescu et al., 2013a],[b]).
The reconstruction of the image was performed using the PMOD software (PMOD Technologies). The 3D volumes of interest (VOIs) were drawn manually of the following organs: brain, heart, liver, lungs, kidneys, cortical bone, and gallbladder. The organs were carefully identified and VOIs were drawn as irregular contours on high-resolution PET images obtained from each mouse ([Constantinescu et al., 2013b]; [Garg et al., 2017]). The size of each VOI was less than the actual size of each organ to minimize the effects of PET on adjacent organ spills. The VOIs drawing was verified by a second operator. The VOIs of cortical bone were generated by first using PET image to depict the entire femur bone ([Constantinescu et al., 2013b]). The VOI was transferred to a dynamic PET image and the mean time-activity curve (TAC) of the decay correction was extracted for each target organ ([Constantinescu et al., 2013b]).

time from which lung %ID/g of OA group differs significantly (OA vs. Con, Table 2): 7 min
[^18F]-GA concentration of lung, OA group relative to LA group (area under the curve, OA: PG polysaccharides 1 h before, LA: for 7 days): 2 times
[^18F]-GA concentration of lung, OA group relative to control mice (area under the curve, PG polysaccharides orally 1 h before [^18F]-GA): 2.7 times
tissue uptake at 60 s (male, Kunming, mouse, lungs, intravenous, mice, control group, Time(s) 60, read-out: %ID/g of [^18F]-GA in the lungs, Con): 8.86 %ID/g
tissue uptake at 180 s (male, Kunming, mouse, lungs, intravenous, mice, control group, Time(s) 180, read-out: %ID/g of [^18F]-GA in the lungs, Con): 4.36 %ID/g
tissue uptake at 300 s (male, Kunming, mouse, lungs, intravenous, mice, control group, Time(s) 300, read-out: %ID/g of [^18F]-GA in the lungs, Con): 3.29 %ID/g
tissue uptake at 420 s (male, Kunming, mouse, lungs, intravenous, mice, control group, Time(s) 420, read-out: %ID/g of [^18F]-GA in the lungs, Con): 2.78 %ID/g
tissue uptake at 540 s (male, Kunming, mouse, lungs, intravenous, mice, control group, Time(s) 540, read-out: %ID/g of [^18F]-GA in the lungs, Con): 2.42 %ID/g
tissue uptake at 780 s (male, Kunming, mouse, lungs, intravenous, mice, control group, Time(s) 780, read-out: %ID/g of [^18F]-GA in the lungs, Con): 2.1 %ID/g
tissue uptake at 900 s (male, Kunming, mouse, lungs, intravenous, mice, control group, Time(s) 900, read-out: %ID/g of [^18F]-GA in the lungs, Con): 2.15 %ID/g
tissue uptake at 1020 s (male, Kunming, mouse, lungs, intravenous, mice, control group, Time(s) 1020, read-out: %ID/g of [^18F]-GA in the lungs, Con): 2.09 %ID/g
tissue uptake at 1140 s (male, Kunming, mouse, lungs, intravenous, mice, control group, Time(s) 1140, read-out: %ID/g of [^18F]-GA in the lungs, Con): 1.9 %ID/g
tissue uptake at 1350 s (male, Kunming, mouse, lungs, intravenous, mice, control group, Time(s) 1350, read-out: %ID/g of [^18F]-GA in the lungs, Con): 1.75 %ID/g
tissue uptake at 1650 s (male, Kunming, mouse, lungs, intravenous, mice, control group, Time(s) 1650, read-out: %ID/g of [^18F]-GA in the lungs, Con): 1.66 %ID/g
tissue uptake at 1950 s (male, Kunming, mouse, lungs, intravenous, mice, control group, Time(s) 1950, read-out: %ID/g of [^18F]-GA in the lungs, Con): 1.55 %ID/g
tissue uptake at 2250 s (male, Kunming, mouse, lungs, intravenous, mice, control group, Time(s) 2250, read-out: %ID/g of [^18F]-GA in the lungs, Con): 1.51 %ID/g
tissue uptake at 2700 s (male, Kunming, mouse, lungs, intravenous, mice, control group, Time(s) 2700, read-out: %ID/g of [^18F]-GA in the lungs, Con): 1.34 %ID/g
tissue uptake at 3300 s (male, Kunming, mouse, lungs, intravenous, mice, control group, Time(s) 3300, read-out: %ID/g of [^18F]-GA in the lungs, Con): 1.26 %ID/g
tissue uptake at 3900 s (male, Kunming, mouse, lungs, intravenous, mice, control group, Time(s) 3900, read-out: %ID/g of [^18F]-GA in the lungs, Con): 1.23 %ID/g
tissue uptake at 4500 s (male, Kunming, mouse, lungs, intravenous, mice, control group, Time(s) 4500, read-out: %ID/g of [^18F]-GA in the lungs, Con): 1.05 %ID/g
tissue uptake at 5100 s (male, Kunming, mouse, lungs, intravenous, mice, control group, Time(s) 5100, read-out: %ID/g of [^18F]-GA in the lungs, Con): 1.04 %ID/g
tissue uptake at 5700 s (male, Kunming, mouse, lungs, intravenous, mice, control group, Time(s) 5700, read-out: %ID/g of [^18F]-GA in the lungs, Con): 1.02 %ID/g
tissue uptake at 6300 s (male, Kunming, mouse, lungs, intravenous, mice, control group, Time(s) 6300, read-out: %ID/g of [^18F]-GA in the lungs, Con): 0.97 %ID/g
tissue uptake at 6900 s (male, Kunming, mouse, lungs, intravenous, mice, control group, Time(s) 6900, read-out: %ID/g of [^18F]-GA in the lungs, Con): 0.94 %ID/g
tissue uptake at 1 h (male, Kunming, mouse, lungs, mice, PG polysaccharides orally 1 h before [^18F]-GA, Time(s) 60): 8.21 %ID/g
tissue uptake at 1 h (male, Kunming, mouse, lungs, mice, PG polysaccharides orally 1 h before [^18F]-GA, Time(s) 180): 5.95 %ID/g
tissue uptake at 1 h (male, Kunming, mouse, lungs, mice, PG polysaccharides orally 1 h before [^18F]-GA, Time(s) 300): 5.53 %ID/g
tissue uptake at 1 h (male, Kunming, mouse, lungs, mice, PG polysaccharides orally 1 h before [^18F]-GA, Time(s) 420): 5.2 %ID/g
tissue uptake at 1 h (male, Kunming, mouse, lungs, mice, PG polysaccharides orally 1 h before [^18F]-GA, Time(s) 540): 4.85 %ID/g
tissue uptake at 1 h (male, Kunming, mouse, lungs, mice, PG polysaccharides orally 1 h before [^18F]-GA, Time(s) 660): 4.63 %ID/g
tissue uptake at 1 h (male, Kunming, mouse, lungs, mice, PG polysaccharides orally 1 h before [^18F]-GA, Time(s) 780): 4.54 %ID/g
tissue uptake at 1 h (male, Kunming, mouse, lungs, mice, PG polysaccharides orally 1 h before [^18F]-GA, Time(s) 900): 4.53 %ID/g
tissue uptake at 1 h (male, Kunming, mouse, lungs, mice, PG polysaccharides orally 1 h before [^18F]-GA, Time(s) 1020): 4.35 %ID/g
tissue uptake at 1 h (male, Kunming, mouse, lungs, mice, PG polysaccharides orally 1 h before [^18F]-GA, Time(s) 1140): 4.25 %ID/g
tissue uptake at 1 h (male, Kunming, mouse, lungs, mice, PG polysaccharides orally 1 h before [^18F]-GA, Time(s) 1350): 4.17 %ID/g
tissue uptake at 1 h (male, Kunming, mouse, lungs, mice, PG polysaccharides orally 1 h before [^18F]-GA, Time(s) 1650): 4.06 %ID/g
SMILES: CC1(C)[C@@H](O)CC[C@]2(C)[C@H]3C(=O)C=C4[C@@H]5C[C@@](C)(C(=O)NCCCC[18F])CC[C@]5(C)CC[C@@]4(C)[C@]3(C)CC[C@@H]12 [[^18F]-GA, [^18F]-Glycyrrhetinic acid]
ranking of organ concentration (area under the curve) (control group, mice): concentration of liver was highest, and the lung was lowest
